According to patent US9439845B2, “Glycyrrhetinimidyl hydroxyproline alkyl esters and protected derivatives thereof” (REVLON CONSUMER PRODUCTS CORPORATION, priority 2013, dated 2016):

Key:
Assay type in all cases: cell-based
[1] = test system: extracellular collagen I in normal human dermal fibroblasts (NHDF); experiment: Extracellular Collagen I expression in fibroblasts (fiber deposition); details: for % Control (extracellular Collagen I) / % Stimulation (extracellular Collagen I) / Mean Collagen I (fibers): 72 hours
Procedure: (§1) It is believed that the glycyrrhetinimidyl hydroxyproline alkyl esters of the present invention are useful for promoting collagen production in human skin. In an exemplary test, normal human dermal fibroblasts (NHDF) were cultured in culture medium for 24 hours. The medium was then replaced with culture medium containing or not (control) the test compound or the reference compound (Vitamin C) or the reference mix (Vitamin C and TGF-β). The cells were then incubated for 72 hours. After incubation, the culture medium was then collected and the cells were washed and fixed. Cells were then labeled with a primary antibody (anti-collagen I or anti-collagen III). […] An INCell Analyzer 1000 was used to take images of each well. The labeling was quantified by the measurement of the fluorescence intensity or fluorescence area normalized to the total number of cells.
(§2) A collagen release promoter, such as Vitamin C, could be used to release the intracellular collagen into the extracellular matrix. Note that in Tables 3 and 4 below, the apparent inhibition of glycyrrhetinimidyl hydroxyproline methyl ester on extracellular collagen fiber deposition is due to an artifact effect.

[2] = test system: collagen III in normal human dermal fibroblasts (NHDF); experiment: Total Collagen III expression in fibroblasts (immunofluorescence, INCell Analyzer 1000); details: for % Control (total Collagen III) / % Stimulation (total Collagen III) / Mean Collagen III (AU): 72 hours
Procedure: as §1

[3] = test system: extracellular collagen III in normal human dermal fibroblasts (NHDF); experiment: Extracellular Collagen III expression in fibroblasts (fiber deposition); details: for % Control (extracellular Collagen III) / % Stimulation (extracellular Collagen III) / Mean Collagen III (fibers): 72 hours
Procedure: as §1, §2

[4] = test system: collagen I in normal human dermal fibroblasts (NHDF); experiment: Total Collagen I expression in fibroblasts (immunofluorescence, INCell Analyzer 1000); details: for % Control (total Collagen I) / % Stimulation (total Collagen I) / Mean Collagen I (AU): 72 hours; for Mean Collagen I (AU): AU = fluorescence intensity/number of cells
Procedure: as §1

[5] = 10 μM, apparent inhibition said to be an artifact
[6] = 30 μM, apparent inhibition said to be an artifact
[7] = qualitative analysis of the images

glycyrrhetinimidyl hydroxyproline methyl ester
% Control (extracellular Collagen I) ([1]; 3.3 μM): 102%
% Stimulation (extracellular Collagen I) ([1]; 3.3 μM): 2%
Mean Collagen I (fibers) ([1]; 3.3 μM): 63 fibers
% Control (extracellular Collagen I) [1, 5]: 79%
% Stimulation (extracellular Collagen I) [1, 5]: −21%
Mean Collagen I (fibers) [1, 5]: 48 fibers
% Control (extracellular Collagen I) [1, 6]: 70%
% Stimulation (extracellular Collagen I) [1, 6]: −30%
Mean Collagen I (fibers) [1, 6]: 43 fibers
effect on collagen I extracellular fiber deposition [1, 7]: no significant effect
extracellular release of collagen I ([1]; summary of Table 3): no significant increase
% Control (total Collagen III) ([2]; 3.3 μM): 105%
% Stimulation (total Collagen III) ([2]; 3.3 μM): 5%
Mean Collagen III (AU) ([2]; 3.3 μM): 177399 AU
% Control (total Collagen III) ([2]; 10 μM): 118%
% Stimulation (total Collagen III) ([2]; 10 μM): 18%
Mean Collagen III (AU) ([2]; 10 μM): 199984 AU
% Control (total Collagen III) ([2]; 30 μM): 142%
% Stimulation (total Collagen III) ([2]; 30 μM): 42%
Mean Collagen III (AU) ([2]; 30 μM): 240374 AU
increase of the NHDF's neosynthesis of collagen III ([2]; maximum over tested concentrations (text summary of Table 2)): up to 42%
% Control (extracellular Collagen III) ([3]; 3.3 μM): 105%
% Stimulation (extracellular Collagen III) ([3]; 3.3 μM): 5%
Mean Collagen III (fibers) ([3]; 3.3 μM): 34 fibers
% Control (extracellular Collagen III) ([3]; 10 μM): 107%
% Stimulation (extracellular Collagen III) ([3]; 10 μM): 7%
Mean Collagen III (fibers) ([3]; 10 μM): 34 fibers
% Control (extracellular Collagen III) [3, 6]: 78%
% Stimulation (extracellular Collagen III) [3, 6]: −22%
Mean Collagen III (fibers) [3, 6]: 25 fibers
effect on collagen III extracellular fiber deposition [3, 7]: no significant effect
extracellular release of collagen III ([3]; text summary of Table 4): no significant increase
% Control (total Collagen I) ([4]; 3.3 μM): 102%
% Stimulation (total Collagen I) ([4]; 3.3 μM): 2%
Mean Collagen I (AU) ([4]; 3.3 μM): 222721 AU
% Control (total Collagen I) ([4]; 10 μM): 97%
% Stimulation (total Collagen I) ([4]; 10 μM): −3%
Mean Collagen I (AU) ([4]; 10 μM): 210888 AU
% Control (total Collagen I) ([4]; 30 μM): 126%
% Stimulation (total Collagen I) ([4]; 30 μM): 26%
Mean Collagen I (AU) ([4]; 30 μM): 274297 AU
increase of the NHDF's neosynthesis of collagen I ([4]; maximum over tested concentrations (text summary of Table 1)): up to 26%
